Assay results as given in publication PMC4861903, “Synthesis of a highly water-soluble acacetin prodrug for treating experimental atrial fibrillation in beagle dogs” (Scientific Reports, 2016).

Target: T1, IKACh (acetylcholine-activated K+ current) (Rattus norvegicus, UniProt P48548+P63251)
T1 construct: endogenous in cells; host or cells: atrial myocytes dissociated from male Sprague-Dawley rats
T1 sequence (P63251 1-501): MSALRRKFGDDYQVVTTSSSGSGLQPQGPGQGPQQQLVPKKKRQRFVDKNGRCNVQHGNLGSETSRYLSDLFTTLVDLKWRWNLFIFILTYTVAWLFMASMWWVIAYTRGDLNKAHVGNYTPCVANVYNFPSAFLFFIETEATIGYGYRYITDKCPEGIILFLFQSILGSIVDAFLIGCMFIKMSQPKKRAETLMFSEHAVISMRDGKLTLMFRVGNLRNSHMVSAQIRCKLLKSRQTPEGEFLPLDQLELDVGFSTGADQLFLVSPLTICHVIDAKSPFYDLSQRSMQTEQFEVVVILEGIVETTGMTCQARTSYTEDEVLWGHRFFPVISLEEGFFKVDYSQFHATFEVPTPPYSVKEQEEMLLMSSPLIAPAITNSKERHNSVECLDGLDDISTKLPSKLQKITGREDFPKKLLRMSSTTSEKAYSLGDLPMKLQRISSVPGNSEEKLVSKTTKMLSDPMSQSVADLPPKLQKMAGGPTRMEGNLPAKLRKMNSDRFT
T1 sequence (P48548 1-419): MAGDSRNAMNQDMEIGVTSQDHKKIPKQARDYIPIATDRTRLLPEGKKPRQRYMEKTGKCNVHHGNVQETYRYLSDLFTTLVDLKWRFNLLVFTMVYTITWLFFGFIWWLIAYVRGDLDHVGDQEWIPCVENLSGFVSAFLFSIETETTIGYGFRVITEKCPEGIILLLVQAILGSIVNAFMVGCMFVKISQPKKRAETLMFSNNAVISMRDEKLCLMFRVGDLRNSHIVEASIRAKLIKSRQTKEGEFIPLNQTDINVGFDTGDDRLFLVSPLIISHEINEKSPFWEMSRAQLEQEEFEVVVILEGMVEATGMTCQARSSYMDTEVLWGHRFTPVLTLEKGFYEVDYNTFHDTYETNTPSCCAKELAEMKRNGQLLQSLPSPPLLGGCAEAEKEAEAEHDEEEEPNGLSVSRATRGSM
Assay: Whole-cell IKACh elicited by 5 μM carbachol in rat atrial myocytes
Type: cell-based
Details: 30 μM, at −100 mV, n = 5
Experimental: Whole-cell currents of hKv1.5 and hKv4.3 were recorded in established HEK 293 cell lines stably expressing hKv1.5 (KCN5A) and hKv4.3 (KCND3) and IKACh was determined in isolated rat atrial myocytes as described previously[12][31][32] and in Supplemental Materials. […]
Effects of acacetin prodrug on cardiac potassium currents […]
Cells on a coverslip were transferred to an open cell chamber (0.5 ml) mounted on the stage of an inverted microscope and superfused with Tyrode’s solution at 2 mL/min. The whole cell patch-clamp technique was used as described previously.1, 2 The whole-cell membrane currents were measured using an EPC-10 amplifier and Pulse software (Heka Elektronik, Lambrecht, Germany). Borosilicate glass electrodes (1.2-mm OD) were pulled with a Brown/Flaming puller (model P-97, Sutter Instrument, Nato, CA) and had resistances of 1.5~2.5 MΩ when filled with the pipette solution. A 3-M KCl agar bridge was used as the reference electrode. The tip potential was zeroed before the patch pipette contacted the cell. After a giga-Ohm seal was obtained, the cell membrane was ruptured by applying gentle pressure to establish a whole-cell configuration. […] The liquid junction potential (14.7 mV) calculated with the software Clampex was not corrected in the experiment and data […]
Whole-cell current of IKACh was determined in isolated rat atrial myocytes. […]

SMILES: COc1ccc(-c2cc(=O)c3c(O)cc(OP(=O)([O-])[O-])cc3o2)cc1.[Na+].[Na+] [acacetin prodrug, phosphate sodium salt of acacetin]
- inhibition of IK.ACh: no significant inhibition
